Results on 1 compound are retold here after publication PMC9964404, “Molecular Modeling and In Vitro Evaluation of Piplartine Analogs against Oral Squamous Cell Carcinoma” (Molecules, 2023).

Like-named read-outs stand apart in the source and are kept apart here.

Data set [1] relates to HT-29 (colon adenocarcinoma). The data set is described as follows: MTT cell viability assay, HT-29. The format is cell-based. The procedure:
(§1) SCC cells (SCC9 and SCC4), derived from human tongue OSCC, were obtained by (ATCC® CRL-1629 and CRL-1624) and maintained in DMEM/F12 1:1 medium (Dulbecco’s modified Eagle’s medium and Ham’s F12 medium, Gibco (Thermo Fisher, Waltham, MA, USA), supplemented with 10% (v/v) FBS (Fetal Bovine Serum; Invitrogen, Thermo Fisher, Waltham, MA, USA) and 400 ng/mL hydrocortisone (Sigma-AldrichCo., St. Louis, MO, USA). Primary normal gingival fibroblast human (PCS201 018TM) and other tumor cells B16-F10 (CRL-6475), Hep G2 (HB-8065), and HT-29 (HTB-38) were also obtained at ATCC and maintained in DMEM supplemented with 10% (v/v) FCS. Cells were cultured in a humidified environment containing 5% CO2 at 37 °C. […]
(§2) The viability of cancer cells and primary fibroblasts was tested using the MTT assay as described in MACHADO et al., 2021 [49]. […] Subsequently, the formazan crystals were dissolved by MTT solvent (50% Methanol and 50% DMSO), and the absorbance was read at 560 nm using the EPOCH microplate spectrophotometer (BioTekInstruments, Winooski, VT, USA).
(§3) IC50 values for the MTT assay were obtained by non-linear regression using GraphPad Prism 5.0 software (GraphPad, San Diego, CA, USA) from at least three independent experiments. […] The selectivity index was calculated as: S.I. = IC50 of the compound in fibroblasts/IC50 of the same compound in tumor cells.
Background: Tetrazolium assays rely on reduction of a dye to a coloured formazan, in cell work by metabolically active cells.

Data set [2] concerns SCC9 cells. As to the kind of experiment: Caspase 3/7 analysis (flow cytometry). The format is cell-based, human. The note with it: SCC9, 2 × IC50, 48 h. The procedure: For active caspase detection, 5 × 10^4 SCC9 cells were plated in a 24-well plate containing 1 mL of DMEM/F12 with 10% FBS per well. CellEvent™ Caspase-3/7 reagent (#R37111, Invitrogen) was diluted in culture medium according to the manufacturer’s instructions. Twenty-four hours after plating, cells were treated with Caspase-3/7 reagent and 2× IC50 of 9 or DMSO as a control. Cells were analyzed by flow cytometry after 48 h of treatment.

A further data set relates to B16-F10 (melanoma). The data set is described as follows: MTT cell viability assay, B16-F10. It counts as cell-based. As to conditions: Mus musculus. On the procedure: as §1, §2, §3
In the next data set the test system is HEP G2 (hepatocarcinoma). As to the kind of experiment: MTT cell viability assay, HEP G2. It counts as cell-based. On the procedure: as §1, §2, §3
In data set [3] the test system is SCC9 cells. As to the kind of experiment: SubG1 analysis (propidium iodide DNA content). The format is cell-based, human. As to conditions: SCC9, 48 h. On the procedure: (§4) To evaluate the action of the compound 9 on the cell cycle, cells of the SCC9 lineage were plated in a six-well plate (5 × 10^5 cells/well) as described in LUCENA et al., 2016. After 48h of treatment, cells were trypsinized and stained with propidium iodide (75 µM; Sigma) in the presence of NP-40 (Sigma). DNA content was analyzed by collecting 10,000 events using a FACScalibur flow cytometer. Data were analyzed using CellQuest (BD Biosciences) and FlowJo (Tree Star Inc., Ashland, OR, USA) software. (Version 9.9.4).

A further data set can be described thus: Hemolysis assay. It counts as cell-based. As to conditions: human erythrocytes. On the procedure: Human blood was used as approved by the Research Ethics Committee of the Fluminense Federal University–Nova Friburgo, RJ (CAAE: 43134721.4.0000.5626). The erythrocytes were collected by centrifugation at 1500 rpm for 15 min, washed with PBS (phosphate buffer saline) and 10 mM glucose, and counted in an automatic cells counter (Thermo Fisher, Waltham, MA, USA). The erythrocytes were then plated in 96-well plates at a concentration of 4 × 10^8/well in triplicate, and 10 µL of the compounds were added at a final concentration of 1000 µM in PBS with glucose (final volume of 100 µL). Ten microliters of PBS were used as negative control and 10 µL of PBS with 0.1% Triton ×100 as a positive control. Data reading was performed with EPOCH (BioTek Instruments, Winooski, VT, USA) at 540 nm absorbance, and statistical data were generated with the GRAPHPAD Prism 5.0 program (Intuitive Software for Science, San Diego, CA, USA).

The test system of a further data set is mouse erythrocytes. The data set is described as follows: Hemolytic activity in mouse erythrocytes. It counts as cell-based. The note with it: mouse erythrocytes as printed.
The test system of data set [4] is SCC9 cells. The data set is described as follows: MTT cell viability (cytotoxicity) assay, SCC9. It counts as cell-based, human. The note with it: Homo sapiens. On the procedure: (§5) SCC cells (SCC9 and SCC4), derived from human tongue OSCC, were obtained by (ATCC® CRL-1629 and CRL-1624) and maintained in DMEM/F12 1:1 medium (Dulbecco’s modified Eagle’s medium and Ham’s F12 medium, Gibco (Thermo Fisher, Waltham, MA, USA), supplemented with 10% (v/v) FBS (Fetal Bovine Serum; Invitrogen, Thermo Fisher, Waltham, MA, USA) and 400 ng/mL hydrocortisone (Sigma-AldrichCo., St. Louis, MO, USA). Primary normal gingival fibroblast human (PCS201 018TM) and other tumor cells B16-F10 (CRL-6475), Hep G2 (HB-8065), and HT-29 (HTB-38) were also obtained at ATCC and maintained in DMEM supplemented with 10% (v/v) FCS. Cells were cultured in a humidified environment containing 5% CO2 at 37 °C. For all experiments, the compounds were solubilized in DMSO (Sigma-Aldrich) for a final concentration of 100 mM. From this dilution, other concentrations were made to carry out the cell viability assay. Carboplatin (Fauldcarbo®; Libbs Farmacêutica, São Paulo, SP, Brazil) was used as a control antitumor compound.
(§6) The viability of cancer cells and primary fibroblasts was tested using the MTT assay as described in MACHADO et al., 2021 [49]. Briefly, cancer cells (5 × 10^3 cells/well) were plated in duplicate in a 96-well plate, as indicated. DMSO was diluted in culture medium at the same concentrations and was used as a negative control, representing 100% cell viability. After 48 h of treatment, cells were incubated for 3.5 h with 5 mg/mL of MTT reagent (3,4,5-dimethiazol-2,5-diphenyltetrazoliumbromide) (Sigma-Aldrich Co., St. Louis, MO, USA) diluted in culture medium. Subsequently, the formazan crystals were dissolved by MTT solvent (50% Methanol and 50% DMSO), and the absorbance was read at 560 nm using the EPOCH microplate spectrophotometer (BioTekInstruments, Winooski, VT, USA).
(§7) IC50 values for the MTT assay were obtained by non-linear regression using GraphPad Prism 5.0 software (GraphPad, San Diego, CA, USA) from at least three independent experiments. Data are presented as means, ± standard deviation (SD). A log dose response (inhibitor) vs. response curve using the least square method was used to determine the IC50 and SD of the data. The selectivity index was calculated as: S.I. = IC50 of the compound in fibroblasts/IC50 of the same compound in tumor cells.

The subject of data set [5] is SCC9 cells. The data set is described as follows: Cell cycle analysis (propidium iodide). It counts as cell-based, human. As to conditions: SCC9, 48 h. On the procedure:
as §4

In a further data set the test system is SCC4 cells. As to the kind of experiment: MTT cell viability assay, SCC4. The format is cell-based, human. As to conditions: Homo sapiens, SCC-4, 48 h treatment, read-out: SCC4 IC50. On the procedure: as §5, §6, §7
Data set [6] concerns Primary Gingival Fibroblast. The data set is described as follows: MTT cell viability assay, normal fibroblasts. The format is cell-based, human. As to conditions: Homo sapiens, Fibroblast, 48 h treatment. On the procedure: as §5, §6, §7
Data set [7] relates to Oral Tumor Cells (SCC9, SCC4). The data set is described as follows: MTT cell viability assay, average of OSCC lines SCC9 and SCC4. The note with it: Homo sapiens. It counts as cell-based, human. The procedure:
as §5, §6, §3

Data set [8] concerns SCC9 cells. As to the kind of experiment: Phosphatidylserine exposure analysis (annexin V-FITC / P.I., flow cytometry). The format is cell-based, human. As to conditions: SCC9, 48 h. On the procedure:
Cells of the SCC9 cell line were plated in six-well plates (5 × 10^5 cells/well), trypsinized 48 h after treatment, labeled using the Annexin V-FITC Apoptosis Detection Kit according to the manufacturer’s protocol (#BMS500FI/300, Invitrogen), and analyzed by flow cytometry.
(In general: A flow cytometer gives signals particle by particle.)

`COc1ccc(COC(=O)c2cc(OC)c(OC)c(OC)c2)cc1` [Compound 9, 4-Methoxy-benzyl 3,4,5–trimethoxybenzoate]: the IC50 is 7.31 µM in data set [1] (HT-29); less than 10 µM in data set [1] (Homo sapiens, HT-29, HT-29); 73.3 µM with B16-F10 (melanoma); 6.63 µM in the data set with HEP G2 (hepatocarcinoma) (HEP G2); less than 10 µM in the data set on HEP G2 (hepatocarcinoma) (Homo sapiens, HepG2, HEP G2); 15.4 µg/mL in the data set on SCC9 cells [4] (SCC-9, 48 h, read-out: SCC9 IC50 (µg/mL)). The IC50 in the data set on SCC9 cells [4] (SCC-9, 48 h treatment, MTT, read-out: SCC9 IC50) was 46.2 µM; in the data set with SCC4 cells, 49.8 µM; in data set [6] (read-out: Primary Gingival Fibroblast IC50), 741 µM; in data set [6] (read-out: Primary Gingival Fibroblast IC50 (µg/mL)), 246 µg/mL; in data set [7], 48 µM. Besides, the “Active caspase 3/7” value with SCC9 cells [2] is recorded as ~ 66%. The “DNA fragmentation (SubG1 DNA content)” value with SCC9 cells [3] is listed as ~ 21%. In addition, the hemolysis at 1000 µM in “Hemolysis assay” was less than 1%. Also, the hemolytic activity entry in the data set on mouse erythrocytes is listed as “did not reveal hemolytic activity”. For the same compound, the “Cycle Phase % G2/M” value in the data set with SCC9 cells [5] is listed as ~ 59%. Further, in the data set with SCC9 cells [8], the “annexin V single- and/or double-positive (PI+) labeling” value is ~ 17%. For the same compound, the “increase in annexin V labeling versus control” value in the data set with SCC9 cells [8] is recorded as “four-fold increase”.
